Data as given in patent publication US9925193B2, “Thioether derivatives as protein kinase inhibitors” (KTB TUMORFORSCHUNGSGESELLSCHAFT MBH, priority 2012, dated 2018).

Assays:
ALK = molecular target: T1, ALK (Homo sapiens, UniProt Q9UM73); test: 33PanQinase Activity Assay, ALK; format: biochemical; settings: recombinant human protein kinase, 1 μM [γ-33P]-ATP, 30° C. 80 minutes
T1 construct: made in house; host or cells: Sf9 insect cells (baculovirus)
Experimental: (§1) The effect of the thioether derivatives 8a-v and 9a-i was tested on recombinant, human protein kinases. All protein kinases were expressed in Sf9 insect cells as human recombinant GST-fusion proteins or as His-tagged proteins by means of the baculovirus expression system. Protein kinases were purified by affinity chromatography using either GSH-agarose or Ni-NTH-agarose. The purity and identity of each was checked by SDS-PAGE/silver staining and by western blot analysis with specific antibodies.
(§2) A proprietary protein kinase assay (^33PanQinase® Activity Assay) was used for measuring the kinase activity. All kinase assays were performed in 96-well FlashPlates™ in a 50 μl reaction volume. The assay for all enzymes contained 60 mM HEPES-NaOH, pH 7.5, 3 mM MgCl2, 3 mM MnCl2, 3 μM Na-orthovanadate, 1.2 mM DTT, 50 μg/ml PEG20000 and 1 μM [γ-^33P]-ATP (approx. 5×10^5 cpm per well).
(§3) The reaction cocktails were incubated at 30° C. for 80 minutes. The reaction was stopped with 50 μl of 2% (v/v) H3PO4, plates were aspirated and washed two times with 200 μl of 0.9% (w/v) NaCl. Incorporation of ^33Pi was determined with a microplate scintillation counter. All assays were performed with a BeckmanCoulter/Sagian robotic system.

AXL = molecular target: T2, AXL (Homo sapiens, UniProt P30530); test: 33PanQinase Activity Assay, AXL; format: biochemical; settings: recombinant human protein kinase, 1 μM [γ-33P]-ATP, 30° C. 80 minutes
T2 construct: made in house; host or cells: Sf9 insect cells (baculovirus)
T2 sequence (P30530 26-894): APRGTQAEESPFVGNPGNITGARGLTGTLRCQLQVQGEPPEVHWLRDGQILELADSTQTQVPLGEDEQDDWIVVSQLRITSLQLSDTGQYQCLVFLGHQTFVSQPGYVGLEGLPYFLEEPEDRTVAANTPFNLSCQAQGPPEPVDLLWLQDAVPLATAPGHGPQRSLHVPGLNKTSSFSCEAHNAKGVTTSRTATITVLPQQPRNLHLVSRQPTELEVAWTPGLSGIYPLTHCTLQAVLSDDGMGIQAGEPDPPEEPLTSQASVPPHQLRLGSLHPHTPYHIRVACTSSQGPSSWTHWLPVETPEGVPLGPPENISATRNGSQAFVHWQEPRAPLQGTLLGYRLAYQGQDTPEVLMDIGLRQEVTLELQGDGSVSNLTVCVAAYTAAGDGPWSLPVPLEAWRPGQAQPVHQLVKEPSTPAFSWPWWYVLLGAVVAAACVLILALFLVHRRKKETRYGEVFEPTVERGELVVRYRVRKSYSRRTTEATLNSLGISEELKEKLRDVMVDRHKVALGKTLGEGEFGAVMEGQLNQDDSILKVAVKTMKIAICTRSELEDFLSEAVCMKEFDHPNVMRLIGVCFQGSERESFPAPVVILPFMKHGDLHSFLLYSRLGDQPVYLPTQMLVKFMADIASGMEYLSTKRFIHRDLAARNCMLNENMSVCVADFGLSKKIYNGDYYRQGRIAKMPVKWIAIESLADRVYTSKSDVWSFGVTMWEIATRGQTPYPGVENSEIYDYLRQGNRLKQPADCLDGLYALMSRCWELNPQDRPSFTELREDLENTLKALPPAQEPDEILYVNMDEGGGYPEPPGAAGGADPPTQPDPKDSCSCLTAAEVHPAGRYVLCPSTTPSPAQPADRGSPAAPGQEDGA
Experimental: as §1, §2, §3

FAK = molecular target: T3, FAK (Homo sapiens, UniProt Q05397); test: 33PanQinase Activity Assay, FAK; format: biochemical; settings: recombinant human protein kinase, 1 μM [γ-33P]-ATP, 30° C. 80 minutes
T3 construct: made in house; host or cells: Sf9 insect cells (baculovirus)
Experimental: as §1, §2, §3

IGF1-R = molecular target: T4, IGF1-R (Homo sapiens, UniProt P08069); test: 33PanQinase Activity Assay, IGF1-R; format: biochemical; settings: recombinant human protein kinase, 1 μM [γ-33P]-ATP, 30° C. 80 minutes
T4 construct: made in house; host or cells: Sf9 insect cells (baculovirus)
Experimental: as §1, §2, §3

PRK1 = molecular target: T5, PRK1 (Homo sapiens, UniProt Q16512); test: 33PanQinase Activity Assay, PRK1; format: biochemical; settings: recombinant human protein kinase, 1 μM [γ-33P]-ATP, 30° C. 80 minutes
T5 construct: made in house; host or cells: Sf9 insect cells (baculovirus)
Experimental: as §1, §2, §3

SRC = molecular target: T6, SRC (Homo sapiens, UniProt P12931); test: 33PanQinase Activity Assay, SRC; format: biochemical; settings: recombinant human protein kinase, 1 μM [γ-33P]-ATP, 30° C. 80 minutes
T6 construct: made in house; host or cells: Sf9 insect cells (baculovirus)
Experimental: as §1, §2, §3

VEGF-R2 = molecular target: T7, VEGF-R2 (Homo sapiens, UniProt P35968); test: 33PanQinase Activity Assay, VEGF-R2; format: biochemical; settings: recombinant human protein kinase, 1 μM [γ-33P]-ATP, 30° C. 80 minutes
T7 construct: made in house; host or cells: Sf9 insect cells (baculovirus)
Experimental: as §1, §2, §3

[1] = molecular target: T8, ALK, AXL, FAK, KIT wt, IGF1-R, PIM1, PRK1, SRC and VEGF-R2; test: 33PanQinase Activity Assay, kinase panel summary; format: biochemical, human; settings: at least two kinases of the panel; read-out: IC50 values on at least two kinases from at least two different molecular mechanisms of tumor progression
T8 construct: other: at le; fused on or other part: GST or His tag
Experimental: as §1, §2, §3
Thioether derivatives 8a-v and 9a-i show excellent IC50 values.

PIM1 = molecular target: T9, PIM1 (Homo sapiens, UniProt P11309); test: 33PanQinase Activity Assay, PIM1; format: biochemical; settings: recombinant human protein kinase, 1 μM [γ-33P]-ATP, 30° C. 80 minutes
T9 construct: made in house; host or cells: Sf9 insect cells (baculovirus)
Experimental: as §1, §2, §3

T3 sequence (Q05397 whole entry): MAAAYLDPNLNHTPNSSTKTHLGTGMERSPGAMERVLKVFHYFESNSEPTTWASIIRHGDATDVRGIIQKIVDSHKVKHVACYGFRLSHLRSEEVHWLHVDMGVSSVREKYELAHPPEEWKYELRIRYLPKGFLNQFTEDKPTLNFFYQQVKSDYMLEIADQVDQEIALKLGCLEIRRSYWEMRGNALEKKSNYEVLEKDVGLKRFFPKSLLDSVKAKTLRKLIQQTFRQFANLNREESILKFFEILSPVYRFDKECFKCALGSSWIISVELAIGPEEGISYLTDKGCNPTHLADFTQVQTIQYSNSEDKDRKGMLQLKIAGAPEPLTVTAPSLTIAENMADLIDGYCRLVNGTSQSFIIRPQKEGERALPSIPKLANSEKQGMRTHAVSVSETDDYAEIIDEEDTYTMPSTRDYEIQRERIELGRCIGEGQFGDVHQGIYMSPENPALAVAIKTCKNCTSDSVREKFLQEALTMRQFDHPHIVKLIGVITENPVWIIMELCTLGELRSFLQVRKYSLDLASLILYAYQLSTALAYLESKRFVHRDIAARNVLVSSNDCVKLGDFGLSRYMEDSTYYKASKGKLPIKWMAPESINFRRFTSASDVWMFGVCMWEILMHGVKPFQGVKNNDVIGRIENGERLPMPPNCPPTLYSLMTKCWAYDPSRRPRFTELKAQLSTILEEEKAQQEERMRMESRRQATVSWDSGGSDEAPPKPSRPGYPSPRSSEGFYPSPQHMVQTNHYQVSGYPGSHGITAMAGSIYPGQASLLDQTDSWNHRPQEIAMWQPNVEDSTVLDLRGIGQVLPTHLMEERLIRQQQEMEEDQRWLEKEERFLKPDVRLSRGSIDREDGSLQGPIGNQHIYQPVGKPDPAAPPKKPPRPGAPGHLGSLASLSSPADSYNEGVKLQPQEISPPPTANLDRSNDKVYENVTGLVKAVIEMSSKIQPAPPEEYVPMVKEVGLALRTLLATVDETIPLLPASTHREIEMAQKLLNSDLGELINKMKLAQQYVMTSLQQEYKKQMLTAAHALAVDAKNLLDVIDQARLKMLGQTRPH
T9 sequence (P11309 whole entry): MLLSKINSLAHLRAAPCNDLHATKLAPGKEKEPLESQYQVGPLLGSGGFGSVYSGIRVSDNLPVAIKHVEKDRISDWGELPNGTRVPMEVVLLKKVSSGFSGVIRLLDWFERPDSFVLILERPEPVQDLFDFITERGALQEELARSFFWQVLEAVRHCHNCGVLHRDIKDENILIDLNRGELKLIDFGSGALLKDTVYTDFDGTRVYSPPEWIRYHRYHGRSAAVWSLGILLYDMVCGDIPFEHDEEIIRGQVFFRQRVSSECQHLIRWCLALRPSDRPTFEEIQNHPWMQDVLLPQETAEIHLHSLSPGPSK
T1 sequence (Q9UM73 19-1620): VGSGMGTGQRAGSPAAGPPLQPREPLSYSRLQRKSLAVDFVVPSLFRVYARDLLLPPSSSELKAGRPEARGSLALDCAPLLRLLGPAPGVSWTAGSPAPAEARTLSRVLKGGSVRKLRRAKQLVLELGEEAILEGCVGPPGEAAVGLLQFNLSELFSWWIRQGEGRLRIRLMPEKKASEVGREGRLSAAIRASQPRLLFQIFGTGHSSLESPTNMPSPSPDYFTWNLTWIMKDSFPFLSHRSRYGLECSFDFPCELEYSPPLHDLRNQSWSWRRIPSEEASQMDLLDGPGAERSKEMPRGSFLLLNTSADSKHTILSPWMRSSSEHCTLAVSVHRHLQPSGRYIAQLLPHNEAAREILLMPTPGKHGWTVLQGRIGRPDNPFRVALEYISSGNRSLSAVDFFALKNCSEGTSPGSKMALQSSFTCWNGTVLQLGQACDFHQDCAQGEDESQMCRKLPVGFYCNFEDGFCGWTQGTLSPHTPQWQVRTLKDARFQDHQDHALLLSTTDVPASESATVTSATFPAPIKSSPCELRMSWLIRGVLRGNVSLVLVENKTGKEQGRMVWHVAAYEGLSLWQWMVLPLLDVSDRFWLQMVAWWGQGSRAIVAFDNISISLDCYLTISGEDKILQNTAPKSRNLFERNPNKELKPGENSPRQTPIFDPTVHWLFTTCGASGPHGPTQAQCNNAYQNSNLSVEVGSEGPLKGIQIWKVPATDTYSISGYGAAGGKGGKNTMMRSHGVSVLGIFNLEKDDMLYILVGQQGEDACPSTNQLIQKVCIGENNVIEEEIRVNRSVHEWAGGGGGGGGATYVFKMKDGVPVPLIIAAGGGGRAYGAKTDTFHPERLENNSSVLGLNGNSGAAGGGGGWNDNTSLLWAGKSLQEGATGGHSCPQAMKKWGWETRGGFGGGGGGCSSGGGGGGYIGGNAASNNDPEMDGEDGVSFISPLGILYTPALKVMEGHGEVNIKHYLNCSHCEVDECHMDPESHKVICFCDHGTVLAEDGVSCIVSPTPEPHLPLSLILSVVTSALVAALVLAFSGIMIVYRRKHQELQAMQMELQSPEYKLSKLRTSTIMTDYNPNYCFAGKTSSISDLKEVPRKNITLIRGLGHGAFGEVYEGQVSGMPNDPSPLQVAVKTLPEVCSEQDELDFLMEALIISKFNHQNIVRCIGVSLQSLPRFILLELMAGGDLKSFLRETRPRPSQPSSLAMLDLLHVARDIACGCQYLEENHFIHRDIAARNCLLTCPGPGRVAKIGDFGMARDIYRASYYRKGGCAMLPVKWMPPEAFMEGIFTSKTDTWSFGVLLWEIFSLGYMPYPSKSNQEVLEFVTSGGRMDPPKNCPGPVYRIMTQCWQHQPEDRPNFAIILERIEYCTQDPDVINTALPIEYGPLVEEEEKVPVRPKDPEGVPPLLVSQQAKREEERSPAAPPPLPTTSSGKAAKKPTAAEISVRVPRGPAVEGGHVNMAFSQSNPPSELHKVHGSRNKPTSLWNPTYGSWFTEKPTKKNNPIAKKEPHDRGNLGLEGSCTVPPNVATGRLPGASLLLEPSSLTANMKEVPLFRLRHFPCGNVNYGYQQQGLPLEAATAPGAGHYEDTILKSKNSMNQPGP
T7 sequence (P35968 20-1356): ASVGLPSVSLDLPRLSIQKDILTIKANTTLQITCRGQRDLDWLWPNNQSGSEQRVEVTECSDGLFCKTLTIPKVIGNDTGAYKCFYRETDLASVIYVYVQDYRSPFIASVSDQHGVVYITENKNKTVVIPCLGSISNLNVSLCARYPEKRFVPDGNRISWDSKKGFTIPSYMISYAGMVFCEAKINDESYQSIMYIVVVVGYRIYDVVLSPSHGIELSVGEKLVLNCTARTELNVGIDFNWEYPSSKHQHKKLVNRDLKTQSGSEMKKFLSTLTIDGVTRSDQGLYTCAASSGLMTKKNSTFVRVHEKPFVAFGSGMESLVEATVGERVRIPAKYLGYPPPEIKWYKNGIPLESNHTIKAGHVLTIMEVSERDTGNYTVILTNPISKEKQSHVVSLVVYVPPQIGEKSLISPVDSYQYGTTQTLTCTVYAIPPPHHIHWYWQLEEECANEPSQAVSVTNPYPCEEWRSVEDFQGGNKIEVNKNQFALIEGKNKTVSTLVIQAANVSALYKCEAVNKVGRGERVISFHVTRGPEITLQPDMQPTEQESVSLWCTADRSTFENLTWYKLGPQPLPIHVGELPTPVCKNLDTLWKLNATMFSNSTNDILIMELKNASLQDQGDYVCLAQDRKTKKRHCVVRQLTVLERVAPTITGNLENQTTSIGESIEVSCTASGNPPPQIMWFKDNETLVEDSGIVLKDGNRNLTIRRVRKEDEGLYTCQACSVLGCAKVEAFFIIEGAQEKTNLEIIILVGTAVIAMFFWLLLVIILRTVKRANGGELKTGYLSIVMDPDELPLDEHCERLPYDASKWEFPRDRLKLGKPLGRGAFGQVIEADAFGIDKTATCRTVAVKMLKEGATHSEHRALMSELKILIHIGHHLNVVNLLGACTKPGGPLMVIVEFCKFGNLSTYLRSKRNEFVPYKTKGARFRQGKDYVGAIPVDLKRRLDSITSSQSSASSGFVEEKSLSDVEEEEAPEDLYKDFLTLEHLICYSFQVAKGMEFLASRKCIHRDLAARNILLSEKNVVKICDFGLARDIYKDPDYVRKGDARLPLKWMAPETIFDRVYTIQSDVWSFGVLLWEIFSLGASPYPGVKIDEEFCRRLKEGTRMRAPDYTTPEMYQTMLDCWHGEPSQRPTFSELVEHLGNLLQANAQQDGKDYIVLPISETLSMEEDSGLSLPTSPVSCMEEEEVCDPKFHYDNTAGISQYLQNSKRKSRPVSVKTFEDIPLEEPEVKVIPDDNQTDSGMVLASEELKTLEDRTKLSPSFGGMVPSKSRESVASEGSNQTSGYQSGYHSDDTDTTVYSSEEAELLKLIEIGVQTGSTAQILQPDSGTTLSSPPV
T6 sequence (P12931 whole entry): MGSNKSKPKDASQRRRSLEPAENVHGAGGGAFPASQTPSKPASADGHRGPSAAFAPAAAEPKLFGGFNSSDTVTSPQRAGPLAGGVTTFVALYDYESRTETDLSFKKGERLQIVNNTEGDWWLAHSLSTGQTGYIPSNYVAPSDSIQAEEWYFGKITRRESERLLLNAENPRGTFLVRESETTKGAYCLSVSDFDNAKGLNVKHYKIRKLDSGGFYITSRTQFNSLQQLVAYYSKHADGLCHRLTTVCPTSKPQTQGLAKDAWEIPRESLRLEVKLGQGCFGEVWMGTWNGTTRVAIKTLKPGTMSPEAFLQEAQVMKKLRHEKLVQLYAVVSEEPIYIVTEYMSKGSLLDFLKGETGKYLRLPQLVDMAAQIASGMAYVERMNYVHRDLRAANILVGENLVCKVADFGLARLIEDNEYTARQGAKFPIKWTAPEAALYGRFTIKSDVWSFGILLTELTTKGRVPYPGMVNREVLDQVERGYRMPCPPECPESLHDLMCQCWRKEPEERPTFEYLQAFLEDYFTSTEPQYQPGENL

Row | SMILES | IC50 (ALK) [µM] | IC50 (AXL) [µM] | IC50 (FAK) [µM] | IC50 (IGF1-R) [µM] | IC50 (PRK1) [µM] | IC50 (SRC) [µM] | IC50 (VEGF-R2) [µM] | melting point [°C] | IC50 [1] [µM] | IC50 (PIM1) [µM]
1 | Fc1ccc(-c2cc3ncnc(Sc4ccccn4)c3s2)cc1 [Compound 8j, 6-(4-Fluorophenyl)-4-(pyridin-2-ylthio)thieno[3,2-d]pyrimidine] | 6.63 | 22.6 | 9.08 | 9.15 | 47.3 | 6.35 | 9.69 | 172 to 174 |  | 
2 | FC(F)(F)c1ccc(-c2nnc(Sc3ncnc4[nH]c(-c5ccccc5)nc34)o2)cc1 [Compound 8v, 2-[(8-Phenyl-9H-purin-6-yl)thio]-5-[4-(trifluoromethyl)phenyl]-1,3,4-oxadiazole] | 0.86 | > 100 | 0.93 |  |  | 0.7 |  | 256 to 257 | < 10 | 
3 | COc1cccc(Cc2nnc(Sc3ncnc4cc(-c5ccc(F)cc5)sc34)o2)c1 [Compound 8f, 2-{[6-(4-Fluorophenyl)thieno[3,2-d]pyrimidin-4-yl]thio}-5-(3-methoxybenzyl)-1,3,4-oxadiazole] | 0.651 | 3.2 | 1.28 | 1.27 | 14.6 | 0.487 | 1.47 | 166 to 168 |  | 10.4
4 | Fc1ccc(-c2cc3ncnc(Sc4nnc(Cc5ccccc5)o4)c3s2)cc1 [Compound 8l, 2-Benzyl-5-{[6-(4-fluorophenyl)thieno[3,2-d]pyrimidin-4-yl]thio}-1,3,4-oxadiazole] | 1.15 | 3.14 | 3.01 | 1.5 | 38 | 0.875 | 2.24 |  |  | 13.7
5 | Fc1ccc(-c2cc3ncnc(Sc4nnc(-c5ccc(C(F)(F)F)cc5)o4)c3s2)cc1 [Compound 8e, 2-{[6-(4-Fluorophenyl)thieno[3,2-d]pyrimidin-4-yl]thio}-5-[4-(trifluoromethyl)-phenyl]-1,3,4-oxadiazole] | 0.977 | 2.51 | 1.96 | 1.03 | 15.4 | 0.54 | 1.41 | 233 to 235 |  | 8.68
6 | Fc1ccc(-c2cc3ncnc(Sc4ccc(C(F)(F)F)cc4)c3s2)cc1 [Compound 8h, 6-(4-Fluorophenyl)-4-{[4-(trifluoromethyl)phenyl]thio}thieno[3,2-d]pyrimidine] | 1.03 | 2.94 | 2.04 | 1.37 | 33.9 | 0.681 | 1.84 | 172 to 175 |  | 11.3
7 | Fc1ccc(-c2cc3ncnc(Sc4ncc[nH]4)c3s2)cc1 [Compound 8i, 4-[(1H-imidazol-2-yl)thio]-6-(4-fluorophenyl)thieno[3,2-d]pyrimidine] | 23.7 | 41.5 | 22.1 | 23.1 | 86.1 | 11 | 20.8 | 204 to 206 |  | 11.1
